Assay results reported in US10087199B2, “Super-resolution imaging compositions and methods using same” (Yale University, priority 2014, dated 2018).
Entries after “also recorded” stand apart in the source; their conditions may differ.

Key:
[1] = tested on: HeLa cells stably transfected to express GalNAcT2-GFP (Golgi); assay: Incubation with premixed/preassembled Cer-SiR (Golgi labeling); assay type: cell-based; conditions: approximately 2 μM Cer-SiR solution; three protocols A-C
Experimental: An approximately 2 μM solution of Cer-SiR was prepared as follows: Stock solutions in DMSO of SiR-Tz and Cer-TCO were added to a PBS buffer supplemented with 1% casein to achieve a final concentration of 2 μM for both components. The solution was thoroughly mixed and incubated for 15 min at room temperature. Before the solution was added to dishes containing cells, Pluronic F-127 was added (0.2% final concentration). The formation of Cer-SiR was confirmed by HPLC.
Protocol A: HeLa cells stably transfected to express GalNAcT2-GFP were cultured on 35 mm glass bottom dishes (Mattek), washed with DMEM (3×) and incubated with the Cer-SiR solution (prepared as described elsewhere herein) for 5 min at 37° C. The dish was washed with DMEM (3×) and incubated at 19.5° C. for 60 min, washed with DMEM (3×) and imaged.
Protocol B: Same as protocol A, but without the wash step before the incubation at 19.5° C.
Protocol C: HeLa cells stably transfected to express GalNAcT2-GFP were cultured on 35 mm glass bottom dishes (Mattek), washed with DMEM (3×) and incubated with the Cer-SiR solution described for 30 min at 4° C. The dish was washed with DMEM (3×) and incubated at 37° C. for 30 min, washed with DMEM (3×) and imaged. This protocol was similar to the protocol used for Golgi labeling with BODIPY-Cer.

[2] = tested on: HeLa cells that stably expressed GalNAcT2-GFP (Golgi); assay: Two-step Golgi labeling and colocalization with GalNAcT2-GFP by confocal microscopy; assay type: cell-based; conditions: 2 μM Cer-TCO then 2 μM SiR-Tz, or SiR-Tz only; Golgi area; confocal
Experimental: To evaluate whether the Golgi could be selectively imaged using Cer-SiR, HeLa cells that stably expressed a protein fusion composed of GFP and N-acetyl-galactosaminyltransferase 2 (GalNAcT2), a transmembrane protein that localizes to the Golgi with high specificity (Storrie, et al., 1998, J. Cell Biol. 143:1505-1521), were used. These cells were treated with 2 μM Cer-TCO (5 min), maintained at 19.5° C. for 60 min to localize the lipid to the Golgi, treated subsequently with 2 μM SiR-Tz (30 min), and visualized using confocal microscopy (FIG. 2A).
The GalNAcT2-GFP and Cer-SiR signals colocalized with a Pearson's coefficient of 0.50±0.02; the corresponding value for the signals from GalNAcT2-GFP and SiR-Tz was 0.08±0.01 (p<0.0001) (FIG. 10), supporting that Cer-TCO effectively localized to the Golgi and reacted efficiently with SiR-Tz.
Stably or transiently transfected HeLa cells were cultured on 35 mm glass bottom dishes (Mattek). To label with Cer-TCO/SiR-Tz, the cells were incubated in PBS containing 1% casein, 0.2% Pluronic F-127 and 2 or 5 μM TCO-Cer for 5 min at 37° C. After washing three times with DMEM ph(−), the cells were incubated for 1 h at 19.5° C. in DMEM ph(−). During this incubation the dish was sealed with parafilm to protect the cells from the used water bath. Subsequently, the cells were washed three times and PBS containing 1% casein and 2 or 1 μM SiR-Tz, respectively, was added to the dish. The dish was sealed with parafilm again and incubated for 30 min at 19.5° C. After washing three times with DMEM ph(−), the cells were observed under a confocal microscope. Fixed samples were prepared similarly with an additional treatment with 4% PFA for 10 min at room temperature after first temperature block. […]
The Pearson correlation between the SiR and the GFP signal within cells was determined using the correlation measurement tool in Volocity. […] For cells stably expressing GalNAcT2-GFP and treated with SiR-Tz and Cer-TCO 13 samples (cells) were analyzed and for cells only treated with SiR-Tz 8 samples were analyzed. […]

CCCCCCCCCCCCC/C=C/[C@@H](O)[C@H](CO)NC(=O)CCCCCNC(=O)OC1CCCC2=C(c3ccc(CNC(=O)c4ccc(C(=O)[O-])c(C5=C6C=CC(=[N+](C)C)C=C6[Si](C)(C)c6cc(N(C)C)ccc65)c4)cc3)NN=CC2CC1 (stereo partly drawn) [Cer-SiR, 4-((4-(7-(((6-(((2S,3R,E)-1,3-dihydroxyoctadec-4-en-2-yl)amino)-6-oxohexyl)carbamoyl)oxy)-2,4a,5,6,7,8,9,10-octahydrocycloocta[d]pyridazin-1-yl)benzyl)carbamoyl)-2-(7-(dimethylamino)-3-(dimethyliminio)-5,5-dimethyl-3,5-dihydrodibenzo[b,e]silin-10-yl)benzoate]
Golgi labeling with preassembled Cer-SiR [1]: not suitable for Golgi labeling; also recorded: did not lead to Golgi labeling | Pearson's coefficient of colocalization with GalNAcT2-GFP signal [2]: 0.50±0.02
